Source: patent US12478081B2, “Application of aspartic acid derivative in preparing animal feed additive” (ANIPHA TECHNOLOGIES PTY LTD, priority 2018, dated 2025)

Experiment: Thermal stability of compounds at 60° C. (HPLC content of raw material and 2% premix)
Assay type: physicochemical
Conditions: for Detection result of the content of test sample (%) Day 5: Day 5, relative to Day 0; for Detection result of the content of test sample (%) Day 10: Day 10, relative to Day 0
Experimental: The variations of the contents of the main ingredient of the aspartic acid derivative raw material and the main ingredient of a premix containing 2% mass fraction of the aspartic acid derivative (hereinafter referred to as 2% premix) over time were investigated under the conditions of stability test at 60° C.
Experimental apparatus: drug stability incubator, Waters high-performance liquid chromatograph (HPLC), etc.
Test samples: N-carbamoyl-DL-aspartic acid (compound 1), diethyl N-carbamoyl-DL-aspartate (compound 2), Sodium N-carbamoyl-DL-aspartate (compound 3), Calcium N-carbamoyl-DL-aspartate (compound 4), Zinc N-carbamoyl-DL-aspartate (compound 5), Copper N-carbamoyl-DL-aspartate (compound 6), Iron N-carbamoyl-DL-aspartate (compound 7), N-glycyl-DL-aspartic acid (compound 8), N-(4-aminobutyryl)-DL-aspartic acid (compound 9), N-(10-aminodecanoyl)-DL-aspartic acid (compound 10), N-(14-aminomyristoyl)-DL-aspartic acid (compound 11).
Preparation of standard solution: 50 mg of the test sample raw material was ultrasonically dissolved in 50 mL of water to obtain a working reserve solution. An appropriate amount of the working reserve solution was taken and diluted with water respectively to concentrations of 125 ppm, 250 ppm, 500 ppm, and 1000 ppm for HPLC testing. It was checked whether the sample concentrations are in a linear relationship with the peak area response values in HPLC, and a standard curve was established.
Preparation of test solution: An appropriate amount of the test sample raw material and an appropriate amount of a premix containing 2% mass fraction of the test sample (hereinafter referred to as 2% premix) were separately ultrasonically dissolved in an appropriate amount of water to form a 1000 ppm solution, which is filtered through a 0.22 µm filter membrane and then analyzed by HPLC.
HPLC analysis conditions: chromatographic column: Waters C18 column (250 mm×4.6 mm, 5 μm); mobile phase: 0.05% phosphoric acid:methanol=95:5 (v:v) (raw material); 0.05% phosphoric acid: methanol (gradient elution); methanol: 5%→40% (0-15 min) curve 6, 40%→5% (15-16 min) curve 1, 5% (16-23 min) curve 1, (premix, feed); detection wavelength: 210 nm; column temperature: 25° C.; sample size: 20 μL; flow rate: 1 mL/min.
Test method: The test sample raw material and its 2% premix were placed in a culture plate, spread into a thin layer of <5 mm, and placed at 60° C. Samples were taken on the day 5 and ? day 10 for HPLC detection. Each sample was sampled three times in parallel.

| SMILES | Detection result of the content of test sample (%) Day 5 (2% premix) [%] | Detection result of the content of test sample (%) Day 10 (2% premix) [%] | Detection result of the content of test sample (%) Day 5 (Raw material) [%] | Detection result of the content of test sample (%) Day 10 (Raw material) [%] |
| --- | --- | --- | --- | --- |
| CCOC(=O)CC(NC(N)=O)C(=O)OCC (racemic) [Compound 2, diethyl N-carbamoyl-DL-aspartate] | 98.81 | 98.09 | 97.32 | 96.97 |
| NCCCC(=O)NC(CC(=O)O)C(=O)O (racemic) [Compound 9, N-(4-aminobutyryl)-DL-aspartic acid] | 99.41 | 97.68 | 98.46 | 98.09 |
| NC(=O)NC(CC(=O)O)C(=O)O (racemic) [Compound 1, N-carbamoyl-DL-aspartic acid] | 99.66 | 99.70 | 99.79 | 99.28 |
| NCC(=O)NC(CC(=O)O)C(=O)O (racemic) [Compound 8, N-glycyl-DL-aspartic acid] | 98.57 | 97.32 | 99.78 | 98.02 |
| NCCCCCCCCCC(=O)NC(CC(=O)O)C(=O)O (racemic) [Compound 10, N-(10-aminodecanoyl)-DL-aspartic acid] | 98.55 | 97.81 | 99.00 | 96.73 |
| NCCCCCCCCCCCCCC(=O)NC(CC(=O)O)C(=O)O (racemic) [Compound 11, N-(14-aminomyristoyl)-DL-aspartic acid] | 98.22 | 97.80 | 97.61 | 95.93 |
